# Data: publication PMC4151236, “Early identification of hERG liability in drug discovery programs by automated patch clamp” (Frontiers in Pharmacology, 2014)
# Target: T1, hERG (Kv11.1) (Homo sapiens, UniProt Q12809)
# T1 construct: gene KCNH2
# Experiment: automated whole-cell patch clamp (QPatch), CHO hERG DUO cells, three-point dose-response
# Format: cell-based
# T1 sequence (Q12809 whole entry): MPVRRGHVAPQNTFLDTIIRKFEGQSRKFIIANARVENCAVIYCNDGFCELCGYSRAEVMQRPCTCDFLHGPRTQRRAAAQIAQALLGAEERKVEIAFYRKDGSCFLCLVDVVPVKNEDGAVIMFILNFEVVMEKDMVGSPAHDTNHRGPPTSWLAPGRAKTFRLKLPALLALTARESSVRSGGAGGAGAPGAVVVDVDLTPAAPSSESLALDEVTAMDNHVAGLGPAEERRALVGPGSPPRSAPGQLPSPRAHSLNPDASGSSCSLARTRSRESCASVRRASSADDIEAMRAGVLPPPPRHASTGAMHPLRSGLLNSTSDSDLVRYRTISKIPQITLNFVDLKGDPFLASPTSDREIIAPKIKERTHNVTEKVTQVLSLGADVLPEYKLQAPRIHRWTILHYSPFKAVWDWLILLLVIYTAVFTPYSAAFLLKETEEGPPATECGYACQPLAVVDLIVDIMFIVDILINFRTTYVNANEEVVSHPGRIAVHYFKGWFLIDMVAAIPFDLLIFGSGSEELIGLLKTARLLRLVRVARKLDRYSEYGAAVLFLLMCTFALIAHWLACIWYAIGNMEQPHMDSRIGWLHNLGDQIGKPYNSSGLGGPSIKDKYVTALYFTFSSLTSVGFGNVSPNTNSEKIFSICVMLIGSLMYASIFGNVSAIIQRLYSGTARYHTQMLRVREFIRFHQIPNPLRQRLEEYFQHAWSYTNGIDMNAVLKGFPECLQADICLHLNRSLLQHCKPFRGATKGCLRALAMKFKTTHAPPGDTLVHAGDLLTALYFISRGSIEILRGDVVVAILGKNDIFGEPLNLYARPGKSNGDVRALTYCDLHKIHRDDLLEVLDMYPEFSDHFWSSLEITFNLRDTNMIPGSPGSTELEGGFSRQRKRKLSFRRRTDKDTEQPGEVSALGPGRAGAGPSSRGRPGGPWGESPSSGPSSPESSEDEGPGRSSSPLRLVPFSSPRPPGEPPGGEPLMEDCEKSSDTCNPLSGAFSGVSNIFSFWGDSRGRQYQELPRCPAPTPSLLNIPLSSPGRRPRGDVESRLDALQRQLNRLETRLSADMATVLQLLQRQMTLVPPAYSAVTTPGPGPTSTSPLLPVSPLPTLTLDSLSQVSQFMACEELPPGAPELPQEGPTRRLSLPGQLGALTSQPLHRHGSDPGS
compound,measurement,value
COc1cc(N)c(Cl)cc1C(=O)NC1CCN(CCCOc2ccc(F)cc2)CC1OC (stereo not shown) [Cisapride],"automated whole-cell patch clamp (QPatch), CHO hERG DUO cells, three-point dose-",superimposed to visualize the effect of increasing concentrations of the known hERG blocker Cisapride
